Reference: patent US8148334B2, “Peptides with capacity for binding with interleukine 10 (IL-10)” (Proyecto de Biomedicina Cima, S.L., priority 2007, dated 2012)
Read-outs that look alike come from different tables or passages of the source. Blank lines part the entries; values can stand above or below the molecule they belong to. Where a SMILES comes first, the peptide text is derived from it. Where no end group is shown, it is not given here.

Key:
[1] = Solubilization of 1 mg/mL peptides in culture medium, DMSO or urea; format: physicochemical; conditions: for Resuspension with DMSO: DMSO 2% of final volume of 1 mg/mL stock and clean medium, after sonication
Description: In order to measure the capacity of the peptides to inhibit IL-10, it is necessary for them to be in solution in the culture medium in which the proliferation assay with MC/9 cells is conducted. To that end, an attempt was first made to dissolve the peptides in complete medium at the concentration of 1 mg/mL. Due to the fact that, of the 26 peptides of Table 1, only 10 were soluble and 2 were partially soluble in these conditions (Table 3), it was necessary to improve the solubility of the remaining peptides by adding different proportions of dimethyl sulfoxide (DMSO) or urea. Other solubilizing agents, such as guanidine hydrochloride, ethanol, methanol, isopropanol, dimethylformamide (DMF), acetone, acetonitrile, ammonia and acetic acid were also tested, but due to the fact that they were not very effective or toxic for the cells, their use was discarded. For the purpose of limiting as much as possible the toxicity of DMSO or urea, the concentration of both agents in the culture medium was kept as low as possible compatible with the in vitro assay. Thus, the maximum concentration of solubilizing agent to be added which allows conducting the in vitro proliferation assay of MC/9 cells was first determined. As indicated above, 1, 0.5, 0.1, 0.05, 0.01, 0.005 and 0.001% acetic acid, ammonia, DMSO, DMF, acetone, acetonitrile, isopropanol, methanol and ethanol and 2, 1, 0.5, 0.250, 0.125, 0.062 and 0.031 M urea and guanidine hydrochloride were tested.
Guanidine hydrochloride was very toxic in all tested concentrations. […] In the case of urea, the limit concentration was 125 mM, and for ammonia, 0.2% (maximum tested). In relation to the alcohols, they were compatible up to 1% (maximum) and acetone and acetonitrile seemed to induce MC/9 cell proliferation. DMSO: • The resuspension of the peptides identified as SEQ ID NO: 5, SEQ ID NO: 6, SEQ ID NO: 9, SEQ ID NO: 12, SEQ ID NO: 15 and SEQ ID NO: 16 with DMSO (2% of the final volume of the 1 mg/mL stock) and clean medium was tested. After subjecting them to sonication, all of them were still cloudy, except the peptide identified as SEQ ID NO: 16. Methanol/Ethanol • To dissolve peptides using these alcohols, it is necessary to use them at 100% and at this concentration they are toxic for MC/9 cells. They are toxic even at 70%. Urea • The peptides identified as SEQ ID NO: 6, SEQ ID NO: 16, SEQ ID NO: 17, SEQ ID NO: 18 and SEQ ID NO: 20 were dissolved in 8 M urea (final concentration 0.8 M in 1 mg/mL) and complete medium. Urea is relatively toxic (cpm without urea 1.128, with 120 mM urea 109, with 80 mM 308 and with 20 mM 800, but the window is maintained).
Of the total of 39 peptides indicated, 11 (in bold print) could not be solubilized with any of the indicated conditions, therefore they could not be tested in the in vitro assay.
The peptides which could not be solubilized with any of the tested conditions are indicated in bold print. part S: partially soluble; S: soluble; I: insoluble

[2] = tested on: MC/9 cells; assay: Toxicity: inhibition of mGM-CSF-induced MC/9 cell proliferation; format: cell-based, mouse; conditions: inhibition of proliferation induced by 0.01 ng/mL mGM-CSF
Source text: The addition of peptides with the capacity to inhibit the activity of IL-10 to the MC/9 cell culture, to which exogenous IL-10 has been added, has the effect of inhibiting the proliferation of these cells due to the fact that IL-10 promotes the proliferation thereof. However, the addition of a peptide or any component to the culture (used to improve peptide solubility) which was toxic for MC/9 cells would also have the effect of inhibiting cell proliferation. […] For this purpose, an assay in parallel of the peptides using mouse granulocyte-monocyte colony-stimulating factor (mGM-CSF) (which also promotes MC/9 cell proliferation) instead of IL-10 was conducted. The concentration of mGM-CSF used was 0.01 ng/mL. In this case, IL-4 was not used as co-stimulus. The toxicity was expressed as the percentage of inhibition of the proliferation induced by mGM-CSF.
In the case of the peptides dissolved in urea, when analyzing both the IL-10 inhibition and the toxicity, negative, positive controls and controls with antibody with the concentrations of urea present in the peptide sample (120 mM, 80 mM and 20 mM) as well as controls without urea were included. The percentage of inhibition at each concentration of peptide was calculated comparing the cpm values of the sample with the values of the controls which contained the same concentration of urea.

[3] = 1 mg/mL peptide, read-out: Solubility, Complete medium
[4] = 1 mg/mL peptide, read-out: Solubility, 0.8 M UREA

Molecule: CC(C)[C@H](NC(=O)[C@H](C)NC(=O)[C@@H](NC(=O)[C@@H]1CCCN1C(=O)[C@H](Cc1c[nH]cn1)NC(=O)[C@H](CCCNC(=N)N)NC(=O)[C@H](CCCNC(=N)N)NC(=O)[C@H](Cc1ccccc1)NC(=O)[C@H](Cc1c[nH]cn1)NC(=O)[C@H](Cc1ccccc1)NC(=O)[C@H](CS)NC(=O)[C@H](CCCNC(=N)N)NC(=O)[C@H](Cc1c[nH]cn1)NC(=O)[C@@H](N)CS)C(C)C)C(=O)N[C@@H](Cc1ccccc1)C(=O)O [compound 6] (H-CHRCFHFRRHPVAVF-OH; N-terminus and C-terminus assumed)
Solubility, 2% DMSO ([1]; 1 mg/mL peptide): Turbidity | solubility [1, 4]: > 1000 µg/mL | solubility [1, 3]: < 1000 µg/mL

Molecule: TRHRHVPRFLPLRHV [P13]
solubility [1]: soluble

Molecule: GVLSSIFSWRLVALH [compound 12]
Solubility, 0.8 M UREA ([1]; 1 mg/mL peptide): Turbidity | Solubility, 2% DMSO ([1]; 1 mg/mL peptide): Turbidity | solubility [1, 3]: < 1000 µg/mL

Molecule: GAGVLTPFTWRRFHM [compound 10]
solubility [1, 3]: > 1000 µg/mL

Molecule: AKVPSFRRSSLGSVR [compound 4]
solubility [1, 3]: > 1000 µg/mL

Molecule: RKLRPHWLHFHPVAV [compound 1]
solubility [1, 3]: > 1000 µg/mL

Molecule: HRWMPHVFAVRQGAS [compound 7]
solubility [1, 3]: > 1000 µg/mL

Molecule: RFYHADMLLRHVLMM [compound 5]
Solubility, 0.8 M UREA ([1]; 1 mg/mL peptide): Turbidity | Solubility, 2% DMSO ([1]; 1 mg/mL peptide): Turbidity | solubility [1, 3]: < 1000 µg/mL

Molecule: GRVPSMFGGHFFFSR [P21]
Resuspension with DMSO [1]: still cloudy

Molecule: RFYHADMLLRHVLMM [P8]
Resuspension with DMSO [1]: still cloudy

Molecule: ARWMHRHHGWSDRHR [compound 2]
solubility [1, 3]: > 1000 µg/mL

Molecule: FSWYFRHHRLMVAGP [P24]
toxicity for MC/9 cells [2]: partially toxic

Molecule: WAYYHAGHSSFAVWT [P14]
Resuspension with DMSO [1]: still cloudy

Molecule: RMLGFMSGSWRTPVR [compound 11]
solubility [1, 3]: > 1000 µg/mL

Molecule: HGFFAGGLAHWHGHR [P26]
toxicity for MC/9 cells [2]: partially toxic

Molecule: WAYYHAGHSSFAVWT [compound 9]
Solubility, 0.8 M UREA ([1]; 1 mg/mL peptide): Turbidity | Solubility, 2% DMSO ([1]; 1 mg/mL peptide): Turbidity | solubility [1, 3]: < 1000 µg/mL

Molecule: CC(C)[C@H](NC(=O)[C@H](C)NC(=O)[C@@H](NC(=O)[C@@H]1CCCN1C(=O)[C@H](Cc1c[nH]cn1)NC(=O)[C@H](CCCNC(=N)N)NC(=O)[C@H](CCCNC(=N)N)NC(=O)[C@H](Cc1ccccc1)NC(=O)[C@H](Cc1c[nH]cn1)NC(=O)[C@H](Cc1ccccc1)NC(=O)[C@H](CS)NC(=O)[C@H](CCCNC(=N)N)NC(=O)[C@H](Cc1c[nH]cn1)NC(=O)[C@@H](N)CS)C(C)C)C(=O)N[C@@H](Cc1ccccc1)C(=O)O [P9] (H-CHRCFHFRRHPVAVF-OH; N-terminus and C-terminus assumed)
solubility [1]: insoluble | Resuspension with DMSO [1]: still cloudy

Molecule: PFVVSDIAFMGLFYD [compound 3]
solubility [1, 3]: < 1000 µg/mL

Molecule: TRHRHVPRFLPLRHV [compound 8]
solubility [1, 3]: > 1000 µg/mL

Molecule: GVLSSIFSWRLVALH [P18]
Resuspension with DMSO [1]: still cloudy

The remaining lines, values ahead:

solubility [1, 3]: > 1000 µg/mL
Molecule: IFRVLSRMLPGTSVI [compound 13]

Solubility, 0.8 M UREA ([1]; 1 mg/mL peptide): Turbidity | solubility [1, 3]: < 1000 µg/mL
Molecule: LFLLSGVFVPDLHEG [compound 24]

Solubility, 0.8 M UREA ([1]; 1 mg/mL peptide): Turbidity | Solubility, 2% DMSO ([1]; 1 mg/mL peptide): Turbidity | solubility [1, 3]: < 1000 µg/mL
Molecule: GRVPSMFGGHFFFSR [compound 15]

solubility [1, 4]: < 1000 µg/mL | solubility [1, 3]: < 1000 µg/mL
Molecule: RGWILDVVYLYPGPL [compound 17]

solubility [1, 4]: > 1000 µg/mL | solubility [1, 3]: < 1000 µg/mL
Molecule: FSWYFRHHRLMVAGP [compound 18]

solubility [1, 4]: > 1000 µg/mL | solubility ([1]; 1 mg/mL peptide, read-out: Solubility, 2% DMSO): < 1000 µg/mL | solubility [1, 3]: < 1000 µg/mL
Molecule: WSLLRIVYNRHSHSK [compound 16]

solubility [1, 3]: < 1000 µg/mL
Molecule: FRSFHYHTGRWHWLP [compound 22]

solubility [1, 4]: > 1000 µg/mL | solubility [1, 3]: < 1000 µg/mL
Molecule: HGFFAGGLAHWHGHR [compound 20]

solubility [1, 3]: > 1000 µg/mL
Molecule: ARFPKELRGSVRSAH [compound 14]

solubility [1, 3]: < 1000 µg/mL
Molecule: HRHFRWLNGMPRLLG [compound 25]

Solubility, 0.8 M UREA ([1]; 1 mg/mL peptide): Turbidity | solubility [1, 3]: < 1000 µg/mL
Molecule: CC(C)C[C@H](NC(=O)CNC(=O)[C@H](C)NC(=O)[C@H](CS)NC(=O)[C@@H](NC(=O)[C@H](Cc1ccccc1)NC(=O)[C@H](Cc1ccccc1)NC(=O)[C@H](CO)NC(=O)[C@@H](N)CCC(=O)O)C(C)C)C(=O)N[C@@H](CS)C(=O)N[C@@H](CCCNC(=N)N)C(=O)N[C@@H](CC(C)C)C(=O)N[C@@H](CCC(N)=O)C(=O)N1CCC[C@H]1C(=O)N[C@@H](Cc1ccc(O)cc1)C(=O)O [compound 23] (H-ESFFVCAGLCRLQPY-OH; N-terminus and C-terminus assumed)

Solubility, 0.8 M UREA ([1]; 1 mg/mL peptide): Turbidity | solubility [1, 3]: < 1000 µg/mL
Molecule: CC(C)C[C@H](NC(=O)[C@H](Cc1ccccc1)NC(=O)[C@H](C)NC(=O)[C@H](CC(C)C)NC(=O)[C@@H](NC(=O)[C@H](Cc1ccccc1)NC(=O)[C@H](CC(C)C)NC(=O)[C@H](Cc1c[nH]cn1)NC(=O)[C@H](CS)NC(=O)[C@H](CS)NC(=O)[C@H](CCCNC(=N)N)NC(=O)[C@H](Cc1c[nH]cn1)NC(=O)[C@H](C)N)[C@@H](C)O)C(=O)N[C@@H](Cc1ccccc1)C(=O)N[C@@H](C)C(=O)O [compound 21] (H-AHRCCHLFTLAFLFA-OH; N-terminus and C-terminus assumed)

Solubility, 0.8 M UREA ([1]; 1 mg/mL peptide): Turbidity | solubility [1, 3]: < 1000 µg/mL
Molecule: CC[C@H](C)[C@H](NC(=O)[C@H](CC(C)C)NC(=O)[C@H](Cc1ccccc1)NC(=O)CNC(=O)[C@@H](NC(=O)[C@H](CC(C)C)NC(=O)[C@H](C)NC(=O)[C@H](CO)NC(=O)[C@H](CS)NC(=O)CN)C(C)C)C(=O)N[C@@H](CC(C)C)C(=O)N[C@@H](CC(C)C)C(=O)N[C@@H](CS)C(=O)N[C@@H](CS)C(=O)N[C@@H](CCSC)C(=O)O [compound 26] (H-GCSALVGFLILLCCM-OH; N-terminus and C-terminus assumed)

solubility [1, 3]: > 1000 µg/mL
Molecule: GRFRHYSMLRHHSIR [compound 19]
